{
  "source": "patent US20030083469A1",
  "about": "“Allosteric control of nuclear hormone receptors” (The Salk Institute for Biological Studies, priority 1995, published 2003)",
  "key": {"GST-hRXRα": {"target": "T1, GST-hRXRα (Homo sapiens, UniProt P19793)", "T1 construct": "made in house", "T1 sequence (P19793 1-462)": "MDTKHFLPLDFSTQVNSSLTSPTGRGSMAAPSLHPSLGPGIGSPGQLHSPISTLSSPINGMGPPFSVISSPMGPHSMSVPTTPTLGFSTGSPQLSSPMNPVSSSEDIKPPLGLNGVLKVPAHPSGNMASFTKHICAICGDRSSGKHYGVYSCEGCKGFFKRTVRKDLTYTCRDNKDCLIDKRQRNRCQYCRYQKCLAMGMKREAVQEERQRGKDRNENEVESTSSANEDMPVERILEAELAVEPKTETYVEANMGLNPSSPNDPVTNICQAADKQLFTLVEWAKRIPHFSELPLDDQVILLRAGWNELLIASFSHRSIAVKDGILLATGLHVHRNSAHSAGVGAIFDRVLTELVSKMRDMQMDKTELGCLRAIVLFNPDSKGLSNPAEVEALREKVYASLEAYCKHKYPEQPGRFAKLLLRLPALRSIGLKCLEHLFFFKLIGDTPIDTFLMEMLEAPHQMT", "assay": "Ligand binding assay with GST-RXR (glutathione-sepharose)", "conditions": "50 nM [3H] LG69; 2 μM unlabeled ligand"}, "GAL-RAR + RXR LBD": {"target": "T2, GAL-RAR + RXR LBD (Homo sapiens, UniProt P19793)", "T2 construct": "or the human RXRα LBD (Glu 203 -Thr 462); expressed in transfected cells; host or cells: CV-1", "T2 sequence (P19793 203-462)": "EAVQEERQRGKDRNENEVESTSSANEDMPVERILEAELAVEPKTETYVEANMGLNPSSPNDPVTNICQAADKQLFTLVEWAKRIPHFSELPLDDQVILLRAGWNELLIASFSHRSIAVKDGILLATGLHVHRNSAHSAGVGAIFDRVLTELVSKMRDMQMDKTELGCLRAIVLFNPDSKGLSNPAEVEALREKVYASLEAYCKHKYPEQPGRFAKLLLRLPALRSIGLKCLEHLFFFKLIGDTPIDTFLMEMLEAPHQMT", "assay": "Transient transfection of GAL-RAR chimera with RXR LBD", "assay_type": "cell-based", "conditions": "100 nM LG69", "experimental": "(§1) CV-1 cells were grown in Dulbecco's Modified Eagle's medium supplemented with 10% resin-charcoal stripped (Samuels et al., Endocrinology 105:80-85 (1979)) fetal bovine serum, 50 U/ml penicillin G and 50 μg/ml streptomycin sulfate (DMEM-FBS) at 37° C. in 5% CO2. One day prior to transfection, cells were plated to 50-80% confluence using phenol-red free DMEM-FBS. Cells were transfected by lipofection using N-{2-(2,3)-dioleoyloxy)propyl-N,N,N-trimethyl ammonium methyl sulfate} according to the manufacturer's instructions (DOTAP, Boehringer Mannheim). […] Cells were harvested and assayed for luciferase and β-galactosidase activity. All points were performed in triplicate in each experiment and varied by less than 10%. Each experiment was repeated three or more times with similar results.\n(§2) Since RXR serves as a silent partner in the T3R and RAR pathways, it was next investigated whether RXR could serve as an active component in other complexes. To search for such complexes, the LBD of a number of nuclear receptors were fused to the GAL4 DBD, and tested to determine whether the RXR LBD could confer LG69 responsiveness upon these GAL-LBD chimeras. […] Normalized luciferase activity was determined and plotted as fold-activation relative to untreated cells."}, "RXR LBD": {"target": "T3, RXR LBD (Homo sapiens, UniProt P19793)", "T3 construct": "or the human RXRα LBD (Glu 203 -Thr 462); expressed in transfected cells; host or cells: CV-1", "T3 sequence (P19793 203-462)": "T2 sequence (P19793 203-462)", "assay": "Transient transfection, RXR LBD expressed alone (UASG x4 TK-LUC)", "assay_type": "cell-based", "conditions": "100 nM LG69", "experimental": "as §1, §2"}, "GAL-T3R + RXR LBD": {"target": "T4, GAL-T3R + RXR LBD (Homo sapiens, UniProt P19793)", "T4 construct": "or the human RXRα LBD (Glu 203 -Thr 462); expressed in transfected cells; host or cells: CV-1", "T4 sequence (P19793 203-462)": "T2 sequence (P19793 203-462)", "T4 sequence (P10828 178-461 partner)": "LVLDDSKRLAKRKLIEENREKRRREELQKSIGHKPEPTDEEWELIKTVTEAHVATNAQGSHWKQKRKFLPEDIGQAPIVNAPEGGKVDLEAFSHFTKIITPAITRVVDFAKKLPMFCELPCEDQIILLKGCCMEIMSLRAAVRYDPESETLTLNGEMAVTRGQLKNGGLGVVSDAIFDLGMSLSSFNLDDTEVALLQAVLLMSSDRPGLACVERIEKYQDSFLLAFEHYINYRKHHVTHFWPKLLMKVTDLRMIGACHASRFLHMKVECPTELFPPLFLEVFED", "assay": "Transient transfection of GAL-T3R chimera with RXR LBD", "assay_type": "cell-based", "conditions": "100 nM LG69", "experimental": "as §1, §2"}, "RXR": {"target": "T5, RXR (Homo sapiens, UniProt P19793)", "T5 construct": "transient transfection analysis of full-length Nurrl and/or RXR; expressed in transfected cells; host or cells: CV-1", "T5 sequence (P19793 1-462)": "T1 sequence (P19793 1-462)", "assay": "Transient transfection of RXR on CRBPII TK-LUC reporter", "assay_type": "cell-based", "conditions": "limiting RXR (20 ng/10^5 cells); LG69", "experimental": "CV-1 cells were grown in Dulbecco's Modified Eagle's medium supplemented with 10% resin-charcoal stripped (Samuels et al., Endocrinology 105:80-85 (1979)) fetal bovine serum, 50 U/ml penicillin G and 50 μg/ml streptomycin sulfate (DMEM-FBS) at 37° C. in 5% CO2. One day prior to transfection, cells were plated to 50-80% confluence using phenol-red free DMEM-FBS. Cells were transfected by lipofection using N-{2-(2,3)-dioleoyloxy)propyl-N,N,N-trimethyl ammonium methyl sulfate} according to the manufacturer's instructions (DOTAP, Boehringer Mannheim). […]. All points were performed in triplicate in each experiment and varied by less than 10%. Each experiment was repeated three or more times with similar results.\n(§3) Using sub-optimal amounts of RXR-expression vector, the CRBPII reporter was compared with a 3-copy NBRE reporter as follows. Cells were transfected as described with respect to FIG. 7B, but with a 5-fold lower amount of CMX-hRXRα (20 ng/10^5 cells). CRBPII TK-LUC (300 ng/10^5 cells) was used where indicated."}, "[1]": {"target": "T6, Nurrl-RXR heterodimer complex (Homo sapiens, UniProt P19793)", "T6 construct": "transient transfection analysis of full-length Nurrl and/or RXR; expressed in transfected cells; host or cells: CV-1", "T6 sequence (Q06219 whole entry partner, one chain of several)": "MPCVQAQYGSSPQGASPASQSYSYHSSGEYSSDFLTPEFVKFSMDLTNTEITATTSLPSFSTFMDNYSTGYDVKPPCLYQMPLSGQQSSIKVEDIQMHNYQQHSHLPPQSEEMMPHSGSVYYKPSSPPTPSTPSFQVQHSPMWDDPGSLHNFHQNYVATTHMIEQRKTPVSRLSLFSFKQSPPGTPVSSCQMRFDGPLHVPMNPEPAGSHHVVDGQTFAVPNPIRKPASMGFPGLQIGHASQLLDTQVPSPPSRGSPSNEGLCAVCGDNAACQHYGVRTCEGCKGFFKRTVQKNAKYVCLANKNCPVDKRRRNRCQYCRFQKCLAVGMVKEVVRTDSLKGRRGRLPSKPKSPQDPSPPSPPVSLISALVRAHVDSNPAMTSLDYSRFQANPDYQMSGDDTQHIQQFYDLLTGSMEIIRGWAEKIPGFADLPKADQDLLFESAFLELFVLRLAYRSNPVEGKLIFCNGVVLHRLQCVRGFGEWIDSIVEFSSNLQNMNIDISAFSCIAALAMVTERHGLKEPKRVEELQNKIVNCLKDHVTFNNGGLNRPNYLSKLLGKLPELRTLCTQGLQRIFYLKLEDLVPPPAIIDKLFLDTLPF", "assay": "Transient transfection of full-length Nurrl and RXR on NBRE x3 TK-LUC", "assay_type": "cell-based, mouse Nurrl, human RXRα", "experimental": "One day prior to transfection, cells were plated to 50-80% confluence using phenol-red free DMEM-FBS. Cells were transfected by lipofection using N-{2-(2,3)-dioleoyloxy)propyl-N,N,N-trimethyl ammonium methyl sulfate} according to the manufacturer's instructions (DOTAP, Boehringer Mannheim).\nThus, CV-1 cells were tranfected with NBRE×3 TK-LUC (300 ng/10^5 cells) , CMX-βgal (500 ng/10^5 cells), alone or with CMX-Nurrl (100 ng/10^5 cells) and CMX-hRXRα (100 ng/10^5 cells) as indicated in FIG. 7B. Following transfection, cells were treated with or without 100 nM LG69. Normalized luciferase activity was determined and plotted as reporter activity.\nas §3"}},
  "data": [
    {"smiles": "CC=C(c1ccc(C(=O)O)cc1)c1cc2c(cc1C)C(C)(C)CCC2(C)C", "note": "[LG69, 4-{1-(3,5,5,8,8-pentamethyl-5,6,7,8-tetrahydro-2-napthalenyl)-1-propenyl}benzoic acid]", "values": [
      {"measurement": "competition of [3H] LG69 binding to GST-RXR by unlabeled ligand", "setting": "GST-hRXRα", "result": "specifically completed"},
      {"measurement": "LG69 responsiveness", "setting": "GAL-RAR + RXR LBD", "result": "not seen"},
      {"measurement": "LG69 responsiveness", "setting": "RXR LBD", "result": "not seen"},
      {"measurement": "LG69 responsiveness", "setting": "GAL-T3R + RXR LBD", "result": "not seen"},
      {"measurement": "activation of the CRBPII reporter", "setting": "RXR", "result": "minimal activation"},
      {"measurement": "responsiveness of the Nurrl-RXR complex", "setting": "[1]; Nurrl and RXR co-expressed, NBRE reporter", "result": "strongly responsive"},
      {"measurement": "response of Nurrl-RXR on NBRE reporter", "setting": "[1]; limiting RXR (20 ng/10^5 cells)", "result": "potent response"}
    ]}
  ]
}
